# Measurements taken from patent US11076595B2, “1-(n,n-disubstituted carbamoyl) 4-(substituted sulfonyl)triazolin-5-one derivative, 4-(n,n-disubstituted carbamoyl) 1-(substituted sulfonyl)triazolin-5-one derivative, and herbicide containing said derivative as active ingredient” (HOKKO CHEMICAL INDUSTRY CO., LTD., priority 2017, dated 2021).
# How the values were obtained:
# Format in all cases: in vivo
# Monochoria vaginalis [1] = test: Test Example 2: herbicidal effect test by treatment during growing period in paddy field; conditions: treatment 7 days after sowing, 120 g/10a, evaluated 14 days after treatment
# Procedure: (§1) This test was performed with two replications per one formulation concentration plot, and 14 days after the formulation treatments, the weed suppression rate (%) was determined according to the following equation (Math. 1). Weed suppression rate (%)=(1−an average dry weight (g) of plants in treated plots/an average dry weight (g) of plants in untreated plots)×100 [Math. 1]
# (§2) A Wagner pot having an area of 1/10000 are was filled with paddy field soil and after adding water, a chemical fertilizer (N:P:K=17:17:17) was mixed, followed by puddling. Thereafter, 30 grains of each of Echinochloa crus-galli, broad-leaved weed (Lindernia pyxidaria and Monochoria vaginalis) and Scirpus juncoides seeds were sown to a depth of 0 to 1 cm. Immediately after the sowing, the pot was flooded, and the depth of water was kept at about 3 cm. The pot was subsequently managed in a glass greenhouse. Seven days after sowing, an emulsifiable concentrate prepared according to Formulation Example 5 by using the compound shown in Table 6 below was diluted with water, and a predetermined amount of the water-diluted formulation was added dropwise. The application rate of the active ingredient, by conversion, corresponded to 120 g per 10 are. The test was performed with two replications per one formulation concentration plot, and 14 days after the formulation treatments, the weed suppression rate (%) was determined according to the equation (Math. 1).
# Echinochloa crus-galli [2] = test: as above; conditions: treatment 7 days after sowing, 120 g/10a, evaluated 14 days after treatment
# Procedure: as §1, §2
# Lindernia pyxidaria [3] = test: as above; conditions: treatment 7 days after sowing, 120 g/10a, evaluated 14 days after treatment
# Procedure: as §1, §2
# Scirpus juncoides [4] = test: as above; conditions: treatment 7 days after sowing, 120 g/10a, evaluated 14 days after treatment
# Procedure: as §1, §2
# Monochoria vaginalis [5] = test: Test Example 1: herbicidal effect test by soil treatment in paddy field; conditions: 120 g/10a, paddy soil treatment just after sowing, 14 days after treatment
# From the text: as §2, with “greenhouse. Just” for “greenhouse. Seven days”, “after that,” for “after sowing,”, “Table 5” for “Table 6”, “are.” for “are. The test was performed with two replications per one formulation concentration plot, and 14 days after the formulation treatments, the weed suppression rate (%) was determined according to the equation (Math. 1).”
# as §1
# Echinochloa crus-galli [6] = test: as above; conditions: 120 g/10a, paddy soil treatment just after sowing, 14 days after treatment
# From the text: as §2, with “greenhouse. Just” for “greenhouse. Seven days”, “after that,” for “after sowing,”, “Table 5” for “Table 6”, “are.” for “are. The test was performed with two replications per one formulation concentration plot, and 14 days after the formulation treatments, the weed suppression rate (%) was determined according to the equation (Math. 1).”
# as §1
# Lindernia pyxidaria [7] = test: as above; conditions: 120 g/10a, paddy soil treatment just after sowing, 14 days after treatment
# From the text: as §2, with “greenhouse. Just” for “greenhouse. Seven days”, “after that,” for “after sowing,”, “Table 5” for “Table 6”, “are.” for “are. The test was performed with two replications per one formulation concentration plot, and 14 days after the formulation treatments, the weed suppression rate (%) was determined according to the equation (Math. 1).”
# as §1
# Scirpus juncoides [8] = test: as above; conditions: 120 g/10a, paddy soil treatment just after sowing, 14 days after treatment
# From the text: as §2, with “greenhouse. Just” for “greenhouse. Seven days”, “after that,” for “after sowing,”, “Table 5” for “Table 6”, “are.” for “are. The test was performed with two replications per one formulation concentration plot, and 14 days after the formulation treatments, the weed suppression rate (%) was determined according to the equation (Math. 1).”
# as §1
# Monochoria vaginalis [9] = test: Test Example 11: herbicidal effect test by soil treatment in paddy field; conditions: 120 g/10a active ingredient, 14 days after treatment
# In short: (§3)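 Pre-emergence flooded-paddy test: the water-diluted emulsifiable concentrate, 120 g active ingredient per 10 are, was dripped into pots immediately after seeding, with water held at about 3 cm. Two replicate pots per rate; 14 days after treatment, plant dry weight versus untreated pots gave the weed suppression rate.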
# Echinochloa crus-galli [10] = test: as above; conditions: 120 g/10a active ingredient, 14 days after treatment
# In short: as §3
# Lindernia pyxidaria [11] = test: as above; conditions: 120 g/10a active ingredient, 14 days after treatment
# In short: as §3
# Scirpus juncoides [12] = test: as above; conditions: 120 g/10a active ingredient, 14 days after treatment
# In short: as §3
# Monochoria vaginalis [13] = test: Test Example 12: herbicidal effect test by treatment during growing period in paddy field; conditions: 120 g/10a; treatment seven days after sowing in flooded paddy pot; assessed 14 days after treatment
# In short: (§4)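 Paddy soil + NPK 17:17:17, puddled; 30 seeds/species sown 0–1 cm; flooded ~3 cm, greenhouse. Day 7 post-sowing: EC diluted in water, applied dropwise into water, 120 g a.i./10 are. Day 14 post-treatment: dry weight vs untreated → % suppression; n=2.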
# Echinochloa crus-galli [14] = test: as above; conditions: 120 g/10a; treatment seven days after sowing in flooded paddy pot; assessed 14 days after treatment
# In short: as §4
# Lindernia pyxidaria [15] = test: as above; conditions: 120 g/10a; treatment seven days after sowing in flooded paddy pot; assessed 14 days after treatment
# In short: as §4
# Scirpus juncoides [16] = test: as above; conditions: 120 g/10a; treatment seven days after sowing in flooded paddy pot; assessed 14 days after treatment
# In short: as §4
# Echinochloa crus-galli [17] = test: Test Example 14: herbicidal effect test by foliage treatment in upland field; conditions: 7 days after sowing, 120 g/10a, 14 days after treatment
# In short: (§5)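 Dry-weight read-out: suppression (%) = (1 − mean treated dry weight/mean untreated dry weight)×100, at 14 days post-spray, two replicate plots per concentration. Spray applied 7 days after sowing, 120 g a.i. per 10 are.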
# Amaranthus viridis [18] = test: as above; conditions: 7 days after sowing, 120 g/10a, 14 days after treatment
# In short: as §5
# Chenopodium album [19] = test: as above; conditions: 7 days after sowing, 120 g/10a, 14 days after treatment
# In short: as §5
# crabgrass [20] = test: as above; conditions: 7 days after sowing, 120 g/10a, 14 days after treatment
# In short: as §5
# Chenopodium album [21] = test: Test Example 13: herbicidal effect test by soil treatment in upland field; conditions: 120 g/10a, 14 days after treatment
# In short: (§6)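 Weed suppression rate (%) computed at 14 days as 1 minus treated/untreated mean dry weight, times 100, with two replicates per concentration. Emulsifiable concentrate diluted in water was applied at 120 g a.i. per 10 are (100 liter per 10 are) onto soil surface one day post-sowing of 20 seeds each in 36 cm^2 pots of alluvial soil.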
# Echinochloa crus-galli [22] = test: as above; conditions: 120 g/10a, 14 days after treatment
# In short: as §6
# Amaranthus viridis [23] = test: as above; conditions: 120 g/10a, 14 days after treatment
# In short: as §6
# crabgrass [24] = test: as above; conditions: 120 g/10a, 14 days after treatment
# In short: as §6
Compound,"weed suppression rate, Monochoria vaginalis (Monochoria vaginalis [1]) [%]","weed suppression rate, Echinochloa crus-galli (Echinochloa crus-galli [2]) [%]","weed suppression rate, Lindemia pyxidaria (Lindernia pyxidaria [3]) [%]","weed suppression rate, Scirpus juncoides (Scirpus juncoides [4]) [%]","weed suppression rate, Monochoria vaginalis (Monochoria vaginalis [5]) [%]","weed suppression rate, Echinochloa crus-galli (Echinochloa crus-galli [6]) [%]","weed suppression rate, Lindemia pyxidaria (Lindernia pyxidaria [7]) [%]","weed suppression rate, Scirpus juncoides (Scirpus juncoides [8]) [%]",Weed suppression rate (%) Monochoria vaginalis (Monochoria vaginalis [9]) [%],Weed suppression rate (%) Echinochloa crus-galli (Echinochloa crus-galli [10]) [%],Weed suppression rate (%) Lindemia pyxidaria (Lindernia pyxidaria [11]) [%],Weed suppression rate (%) Scirpus juncoides (Scirpus juncoides [12]) [%],Weed suppression rate (%) Monochoria vaginalis (Monochoria vaginalis [13]) [%],Weed suppression rate (%) Echinochloa crus-galli (Echinochloa crus-galli [14]) [%],Weed suppression rate (%) Lindemia pyxidaria (Lindernia pyxidaria [15]) [%],Weed suppression rate (%) Scirpus juncoides (Scirpus juncoides [16]) [%],"herbicidal effect, Echinochloa crus-galli (Echinochloa crus-galli [17]) [%]","herbicidal effect, Amaranthus viridis (Amaranthus viridis [18]) [%]","herbicidal effect, Chenopodium album (Chenopodium album [19]) [%]","herbicidal effect, Crabgrass (crabgrass [20]) [%]",also measured
CC(C)N(C(=O)n1ncn(S(=O)(=O)C2CCCCC2)c1=O)c1ccc(Cl)cc1F [Compound 1-314],90,90,100,100,80,100,100,100,,,,,,,,,,,,,
CC(C)N(C(=O)n1ncn(S(=O)(=O)C(C)C)c1=O)c1ccc(Cl)cc1F [Compound 1-73],90,100,80,100,90,100,100,80,,,,,,,,,,,,,
CC(C)N(C(=O)n1ncn(S(=O)(=O)N(C)C)c1=O)c1cccnc1F [Compound 1-1128],60,90,90,70,60,90,90,70,,,,,,,,,,,,,
CC(C)N(C(=O)n1ncn(S(=O)(=O)C(C)C)c1=O)c1ccc(F)nc1 [Compound 1-91],90,100,90,90,90,100,90,90,,,,,,,,,,,,,
CC(C)N(C(=O)n1ncn(S(=O)(=O)C2CCCCC2)c1=O)c1c(F)cc(F)cc1F [Compound 1-310],100,100,100,100,100,100,100,100,,,,,,,,,,,,,
Cc1ccc(N(C(=O)n2ncn(S(=O)(=O)C(C)C)c2=O)C(C)C)c(Cl)c1 [Compound 1-81],80,90,80,90,80,90,80,90,,,,,,,,,,,,,
CC(C)N(C(=O)n1ncn(S(=O)(=O)C2CC2)c1=O)c1ccc(Br)cc1Cl [Compound 1-218],80,100,100,100,80,100,100,100,,,,,,,,,,,,,
CC(C)N(C(=O)n1ncn(S(=O)(=O)c2cccs2)c1=O)c1ccc(F)cc1F [Compound 1-1060],,,,,80,90,80,90,,,,,,,,,,,,,
CC(C)N(C(=O)n1cnn(S(=O)(=O)C(C)C)c1=O)c1c(F)cccc1F [Compound 11-61],,,,,,,,,80,100,100,100,100,100,100,80,100,70,70,100,"herbicidal effect, Chenopodium album (Chenopodium album [21]): 80%; herbicidal effect, Echinochloa crus-galli (Echinochloa crus-galli [22]): 100%; herbicidal effect, Amaranthus viridis (Amaranthus viridis [23]): 90%; herbicidal effect, Crabgrass (crabgrass [24]): 100%"
CC(C)N(C(=O)n1cnn(S(=O)(=O)C2CCCCC2)c1=O)c1ccc(F)c(F)c1F [Compound 11-297],,,,,,,,,90,100,100,100,100,100,70,100,100,90,60,100,"herbicidal effect, Chenopodium album (Chenopodium album [21]): 70%; herbicidal effect, Echinochloa crus-galli (Echinochloa crus-galli [22]): 90%; herbicidal effect, Amaranthus viridis (Amaranthus viridis [23]): 100%; herbicidal effect, Crabgrass (crabgrass [24]): 90%"
CC(C)N(C(=O)n1cnn(S(=O)(=O)C(C)C)c1=O)c1ccc(F)cc1F [Compound 11-59],,,,,,,,,100,100,100,100,100,100,80,90,80,90,80,90,"herbicidal effect, Chenopodium album (Chenopodium album [21]): 100%; herbicidal effect, Echinochloa crus-galli (Echinochloa crus-galli [22]): 100%; herbicidal effect, Amaranthus viridis (Amaranthus viridis [23]): 90%; herbicidal effect, Crabgrass (crabgrass [24]): 100%"
CC(C)N(C(=O)n1cnn(S(=O)(=O)C2CCCCC2)c1=O)c1c(F)cc(F)cc1F [Compound 11-298],,,,,,,,,100,100,100,100,80,100,80,100,100,60,70,100,"herbicidal effect, Chenopodium album (Chenopodium album [21]): 60%; herbicidal effect, Echinochloa crus-galli (Echinochloa crus-galli [22]): 100%; herbicidal effect, Amaranthus viridis (Amaranthus viridis [23]): 60%; herbicidal effect, Crabgrass (crabgrass [24]): 100%"
